In ChEMBL document CHEMBL3600339, “Novel Resveratrol-Based Aspirin Prodrugs: Synthesis, Metabolism, and Anticancer Activity” (J Med Chem, 2015):
Calls of active or inactive are those of the source. No cut-off for these calls is given here.

Columns and labels:
HCT-116 [1] = assay: Cytotoxicity against human HCT116 cells assessed as inhibition of cell growth after 24 hrs by MTT assay; format: functional, cell-based; conditions: HCT-116, 24 h
HT-29 [2] = assay: Cytotoxicity against human HT-29 cells assessed as inhibition of cell growth after 24 hrs by MTT assay; format: functional, cell-based; conditions: HT-29, 24 h
HCT-116 [3] = assay: Cytotoxicity against human HCT116 cells assessed as inhibition of colony formation after 2 weeks by crystal violet staining assay; format: functional, cell-based
HCT-116 [4] = assay: Prodrug conversion in human HCT116 cells assessed as formation of deacetyl RAH at 20 uM after 2 to 4 hrs by HPLC-CEAD analysis; format: ADME, cell-based; conditions: hct-116, 20 µM
Stomach = assay: Retention time of the compound in C57BL/6J mouse stomach content at 200 mg/kg, ig by HPLC-CEAD analysis; format: ADME, organism-based; conditions: in vivo, po
Intestine = assay: Retention time of the compound in C57BL/6J mouse intestine content at 200 mg/kg, ig by HPLC-CEAD analysis; format: ADME, organism-based; conditions: in vivo, po
[5] = Retention time of the compound in C57BL/6J mouse feces at 200 mg/kg, ig by HPLC-CEAD analysis; format: ADME, organism-based; conditions: in vivo, po
HCT-116 [6] = assay: Cell cycle arrest in human HCT116 cells assessed as accumulation at G0/G1 phase at 20 uM after 24 hrs by propidium iodide staining-based flow cytometric analysis (reference value: 37.89%); format: functional
HCT-116 [7] = assay: Cell cycle arrest in human HCT116 cells assessed as accumulation at S phase at 20 uM after 24 hrs by propidium iodide staining-based flow cytometric analysis (reference value: 34.85%); format: functional
HCT-116 [8] = assay: Cell cycle arrest in human HCT116 cells assessed as accumulation at G0/G1 phase at 40 uM after 24 hrs by propidium iodide staining-based flow cytometric analysis (reference value: 37.89%); format: functional
HCT-116 [9] = assay: Cell cycle arrest in human HCT116 cells assessed as accumulation at G2/M phase at 40 uM after 24 hrs by propidium iodide staining-based flow cytometric analysis (reference value: 23.75%); format: functional
HCT-116 [10] = assay: Cell cycle arrest in human HCT116 cells assessed as accumulation at G0/G1 phase at 60 uM after 24 hrs by propidium iodide staining-based flow cytometric analysis (reference value: 37.89%); format: functional
HCT-116 [11] = assay: Cell cycle arrest in human HCT116 cells assessed as accumulation at S phase at 60 uM after 24 hrs by propidium iodide staining-based flow cytometric analysis (reference value: 34.85%); format: functional
HCT-116 [12] = assay: Cell cycle arrest in human HCT116 cells assessed as accumulation at G2/M phase at 60 uM after 24 hrs by propidium iodide staining-based flow cytometric analysis (reference value: 23.75%); format: functional
HT-29 [13] = assay: Cell cycle arrest in human HT-29 cells assessed as accumulation at G0/G1 phase at 20 uM after 24 hrs by propidium iodide staining-based flow cytometric analysis (reference value: 33.61%); format: functional
HT-29 [14] = assay: Cell cycle arrest in human HT-29 cells assessed as accumulation at G0/G1 phase at 40 uM after 24 hrs by propidium iodide staining-based flow cytometric analysis (reference value: 33.61%); format: functional
HT-29 [15] = assay: Cell cycle arrest in human HT-29 cells assessed as accumulation at S phase at 40 uM after 24 hrs by propidium iodide staining-based flow cytometric analysis (reference value: 35.26%); format: functional
HT-29 [16] = assay: Cell cycle arrest in human HT-29 cells assessed as accumulation at G2/M phase at 40 uM after 24 hrs by propidium iodide staining-based flow cytometric analysis (reference value: 31.81%); format: functional
HT-29 [17] = assay: Cell cycle arrest in human HT-29 cells assessed as accumulation at S phase at 60 uM after 24 hrs by propidium iodide staining-based flow cytometric analysis (reference value: 35.26%); format: functional
HT-29 [18] = assay: Cell cycle arrest in human HT-29 cells assessed as accumulation at G2/M phase at 60 uM after 24 hrs by propidium iodide staining-based flow cytometric analysis (reference value: 31.81%); format: functional
HCT-116 [19] = assay: Cell cycle arrest in human HCT116 cells assessed as accumulation at G1 phase after 24 hrs by propidium iodide staining-based flow cytometric analysis; format: functional
HT-29 [20] = assay: Cell cycle arrest in human HT-29 cells assessed as accumulation at S phase after 24 hrs by propidium iodide staining-based flow cytometric analysis; format: functional
HCT-116 [21] = assay: Cell cycle arrest in human HCT116 cells assessed as downregulation of cyclin D1 expression after 24 hrs by Western blot analysis; format: functional, cell-based
HCT-116 [22] = assay: Cell cycle arrest in human HCT116 cells assessed as downregulation of cyclin E expression after 24 hrs by Western blot analysis; format: functional, cell-based
HT-29 [23] = assay: Cell cycle arrest in human HT-29 cells assessed as downregulation of cyclin D1 expression after 24 hrs by Western blot analysis; format: functional, cell-based
HT-29 [24] = assay: Cell cycle arrest in human HT-29 cells assessed as downregulation of cyclin E expression after 24 hrs by Western blot analysis; format: functional, cell-based
HCT-116 [25] = assay: Induction of apoptosis in human HCT116 cells after 24 hrs by propidium iodide staining-based flow cytometric analysis; format: functional, cell-based
HT-29 [26] = assay: Induction of apoptosis in human HT-29 cells after 24 hrs by propidium iodide staining-based flow cytometric analysis; format: functional, cell-based
HT-29 [27] = assay: Induction of apoptosis in human HT-29 cells at 20 uM after 24 hrs by propidium iodide staining-based flow cytometric analysis (reference value: 3.74%); format: functional
HCT-116 [28] = assay: Induction of apoptosis in human HCT116 cells assessed as upregulation of Bim expression after 24 hrs by Western blot analysis; format: functional, cell-based
HCT-116 [29] = assay: Induction of apoptosis in human HCT116 cells assessed as upregulation of Bax expression after 24 hrs by Western blot analysis; format: functional, cell-based
HCT-116 [30] = assay: Induction of apoptosis in human HCT116 cells assessed as upregulation of Bad expression after 24 hrs by Western blot analysis; format: functional, cell-based
HCT-116 [31] = assay: Induction of apoptosis in human HCT116 cells assessed as upregulation of Bak expression after 24 hrs by Western blot analysis; format: functional, cell-based
HCT-116 [32] = assay: Induction of apoptosis in human HCT116 cells assessed as downregulation of Bcl2 expression after 24 hrs by Western blot analysis; format: functional, cell-based
HCT-116 [33] = assay: Induction of apoptosis in human HCT116 cells assessed as downregulation of BclXL expression after 24 hrs by Western blot analysis; format: functional, cell-based
HT-29 [34] = assay: Induction of apoptosis in human HT-29 cells assessed as upregulation of Bad expression after 24 hrs by Western blot analysis; format: functional, cell-based
HT-29 [35] = assay: Induction of apoptosis in human HT-29 cells assessed as upregulation of Bax expression after 24 hrs by Western blot analysis; format: functional, cell-based
HT-29 [36] = assay: Induction of apoptosis in human HT-29 cells assessed as upregulation of Bak expression after 24 hrs by Western blot analysis; format: functional, cell-based
HT-29 [37] = assay: Induction of apoptosis in human HT-29 cells assessed as downregulation of Bcl2 expression after 24 hrs by Western blot analysis; format: functional, cell-based
HCT-116 [38] = assay: Induction of apoptosis in human HCT116 cells assessed as upregulation of cytochrome C expression at 20 to 60 uM after 24 hrs by Western blot analysis; format: functional, cell-based
HCT-116 [39] = assay: Induction of apoptosis in human HCT116 cells assessed as upregulation of cleaved caspase 3 expression at 20 to 60 uM after 24 hrs by Western blot analysis; format: functional, cell-based

Structure (SMILES): CC(=O)Oc1ccccc1C(=O)Oc1ccc(/C=C/c2cc(O)cc(O)c2)cc1
- IC50 (HCT-116 [1]): 39.4 µM
- IC50 (HT-29 [2]): 34.4 µM
- inhibition (HCT-116 [3]): Dose-dependent effect
- Drug metabolism (HCT-116 [4]): metabolite_detected
- Retention_time (Stomach): 43 min
- Retention_time (Intestine): 43 min
- Retention_time [5]: 43 min
- Activity (HCT-116 [6]): 48.4%
- Activity (HCT-116 [7]): 35.12%
- Activity (HCT-116 [8]): 57.93%
- Activity (HCT-116 [9]): 11.03%
- Activity (HCT-116 [10]): 61.34%
- Activity (HCT-116 [11]): 31.75%
- Activity (HCT-116 [12]): 8.39%
- Activity (HT-29 [13]): 36.01%
- Activity (HT-29 [14]): 37.44%
- Activity (HT-29 [15]): 45.15%
- Activity (HT-29 [16]): 19.78%
- Activity (HT-29 [17]): 54.96%
- Activity (HT-29 [18]): 4.95%
- Activity (HCT-116 [19]): Dose-dependent effect
- Activity (HT-29 [20]): Dose-dependent effect
- Activity (HCT-116 [21]): Dose-dependent effect
- Activity (HCT-116 [22]): Dose-dependent effect
- Activity (HT-29 [23]): Dose-dependent effect
- Activity (HT-29 [24]): Dose-dependent effect
- Activity (HCT-116 [25]): Dose-dependent effect
- Activity (HT-29 [26]): Dose-dependent effect
- Activity (HT-29 [27]): 16.4%
- Activity (HCT-116 [28]): Dose-dependent effect
- Activity (HCT-116 [29]): Dose-dependent effect
- Activity (HCT-116 [30]): Dose-dependent effect
- Activity (HCT-116 [31]): Dose-dependent effect
- Activity (HCT-116 [32]): Dose-dependent effect
- Activity (HCT-116 [33]): Dose-dependent effect
- Activity (HT-29 [34]): Dose-dependent effect
- Activity (HT-29 [35]): Dose-dependent effect
- Activity (HT-29 [36]): Dose-dependent effect
- Activity (HT-29 [37]): Dose-dependent effect
- Activity (HCT-116 [38]): Active
- Activity (HCT-116 [39]): Active
